According to ChEMBL document CHEMBL4665869, “New thiazolopyrimidine as anticancer agents: Synthesis, biological evaluation, DNA binding, molecular modeling and ADMET study” (Bioorg Med Chem Lett, 2020):
In brackets after ≈: the same amount, converted by molar mass.

Legend:
U-251 = test: Growth inhibition of human U-251 cells at 10 uM relative to control; format: functional; details: read-out: GI
MDA-MB-231 = test: Growth inhibition of human MDA-MB-231 cells at 10 uM relative to control; format: functional; details: read-out: GI
HCC 2998 = test: Growth inhibition of human HCC 2998 cells at 10 uM relative to control; format: functional; details: read-out: GI
NCI-H322M = test: Growth inhibition of human NCI-H322M cells at 10 uM relative to control; format: functional; details: read-out: GI
786-0 = test: Growth inhibition of human 786-0 cells at 10 uM relative to control; format: functional; details: read-out: GI
A549 = test: Growth inhibition of human A549 cells at 10 uM relative to control; format: functional; details: read-out: GI
BT-549 = test: Growth inhibition of human BT-549 cells at 10 uM relative to control; format: functional; details: read-out: GI
NCI-H23 = test: Growth inhibition of human NCI-H23 cells at 10 uM relative to control; format: functional; details: read-out: GI
SF-295 = test: Growth inhibition of human SF-295 cells at 10 uM relative to control; format: functional; details: read-out: GI
SF-539 = test: Growth inhibition of human SF-539 cells at 10 uM relative to control; format: functional; details: read-out: GI
UACC-62 = test: Growth inhibition of human UACC-62 cells at 10 uM relative to control; format: functional; details: read-out: GI
SF-268 = test: Growth inhibition of human SF-268 cells at 10 uM relative to control; format: functional; details: read-out: GI
NCI-H226 = test: Growth inhibition of human NCI-H226 cells at 10 uM relative to control; format: functional; details: read-out: GI
T47D = test: Growth inhibition of human T47D cells at 10 uM relative to control; format: functional; details: read-out: GI
PC-3 = test: Growth inhibition of human PC-3 cells at 10 uM relative to control; format: functional; details: read-out: GI
ACHN = test: Growth inhibition of human ACHN cells at 10 uM relative to control; format: functional; details: read-out: GI
COLO 205 = test: Growth inhibition of human COLO 205 cells at 10 uM relative to control; format: functional; details: read-out: GI
OVCAR-5 = test: Growth inhibition of human OVCAR-5 cells at 10 uM relative to control; format: functional; details: read-out: GI
SK-MEL-2 = test: Growth inhibition of human SK-MEL-2 cells at 10 uM relative to control; format: functional; details: read-out: GI
MDA-MB-468 = test: Growth inhibition of human MDA-MB-468 cells at 10 uM relative to control; format: functional; details: read-out: GI
RPMI-8226 = test: Growth inhibition of human RPMI-8226 cells at 10 uM relative to control; format: functional; details: read-out: GI
DNA = test: Displacement of methyl green from DNA (unknown origin) assessed as DNA intercalation after 24 hrs by colorimetric assay; format: nucleic-acid assay
MCF7 = test: Growth inhibition of human MCF7 cells at 10 uM relative to control; format: functional; details: read-out: GI
LOX IMVI = test: Growth inhibition of human LOX IMVI cells at 10 uM relative to control; format: functional; details: read-out: GI
HCT-116 = test: Growth inhibition of human HCT-116 cells at 10 uM relative to control; format: functional; details: read-out: GI
SW-620 = test: Growth inhibition of human SW-620 cells at 10 uM relative to control; format: functional; details: read-out: GI
OVCAR-8 = test: Growth inhibition of human OVCAR-8 cells at 10 uM relative to control; format: functional; details: read-out: GI
NCI-H522 = test: Growth inhibition of human NCI-H522 cells at 10 uM relative to control; format: functional; details: read-out: GI
MOLT-4 = test: Growth inhibition of human MOLT-4 cells at 10 uM relative to control; format: functional; details: read-out: GI
SN12C = test: Growth inhibition of human SN12C cells at 10 uM relative to control; format: functional; details: read-out: GI
OVCAR-4 = test: Growth inhibition of human OVCAR-4 cells at 10 uM relative to control; format: functional; details: read-out: GI
SK-OV-3 = test: Growth inhibition of human SK-OV-3 cells at 10 uM relative to control; format: functional; details: read-out: GI
HT-29 = test: Growth inhibition of human HT-29 cells at 10 uM relative to control; format: functional; details: read-out: GI
HOP-92 = test: Growth inhibition of human HOP-92 cells at 10 uM relative to control; format: functional; details: read-out: GI
SR = test: Growth inhibition of human SR cells at 10 uM relative to control; format: functional; details: read-out: GI
RXF 393 = test: Growth inhibition of human RXF 393 cells at 10 uM relative to control; format: functional; details: read-out: GI
SNB-19 = test: Growth inhibition of human SNB-19 cells at 10 uM relative to control; format: functional; details: read-out: GI
A498 = test: Growth inhibition of human A498 cells at 10 uM relative to control; format: functional; details: read-out: GI
NCI/ADR-RES = test: Growth inhibition of human NCI/ADR-RES cells at 10 uM relative to control; format: functional; details: read-out: GI
TK-10 = test: Growth inhibition of human TK-10 cells at 10 uM relative to control; format: functional; details: read-out: GI
SNB-75 = test: Growth inhibition of human SNB-75 cells at 10 uM relative to control; format: functional; details: read-out: GI
DU-145 = test: Growth inhibition of human DU-145 cells at 10 uM relative to control; format: functional; details: read-out: GI
M14 = test: Growth inhibition of human M14 cells at 10 uM relative to control; format: functional; details: read-out: GI
CAKI-1 = test: Growth inhibition of human CAKI-1 cells at 10 uM relative to control; format: functional; details: read-out: GI
SK-MEL-5 = test: Growth inhibition of human SK-MEL-5 cells at 10 uM relative to control; format: functional; details: read-out: GI
K562 = test: Growth inhibition of human K562 cells at 10 uM relative to control; format: functional; details: read-out: GI
HCT-15 = test: Growth inhibition of human HCT-15 cells at 10 uM relative to control; format: functional; details: read-out: GI
HOP-62 = test: Growth inhibition of human HOP-62 cells at 10 uM relative to control; format: functional; details: read-out: GI
CCRF-CEM = test: Growth inhibition of human CCRF-CEM cells at 10 uM relative to control; format: functional; details: read-out: GI
UACC-257 = test: Growth inhibition of human UACC-257 cells at 10 uM relative to control; format: functional; details: read-out: GI
SK-MEL-28 = test: Growth inhibition of human SK-MEL-28 cells at 10 uM relative to control; format: functional; details: read-out: GI
HL-60(TB) = test: Growth inhibition of human HL-60(TB) cells at 10 uM relative to control; format: functional; details: read-out: GI
Malme-3M = test: Growth inhibition of human Malme-3M cells at 10 uM relative to control; format: functional; details: read-out: GI
KM12 = test: Growth inhibition of human KM12 cells at 10 uM relative to control; format: functional; details: read-out: GI
NCI-H460 = test: Growth inhibition of human NCI-H460 cells at 10 uM relative to control; format: functional; details: read-out: GI
Hs-578T = test: Growth inhibition of human Hs-578T cells at 10 uM relative to control; format: functional; details: read-out: GI
IGROV-1 = test: Growth inhibition of human IGROV-1 cells at 10 uM relative to control; format: functional; details: read-out: GI
UO-31 = test: Growth inhibition of human UO-31 cells at 10 uM relative to control; format: functional; details: read-out: GI
MDA-MB-435 = test: Growth inhibition of human MDA-MB-435 cells at 10 uM relative to control; format: functional; details: read-out: GI

COc1ccc(/C=C/C2=CC(c3ccc(OC)cc3)N3C=CSC3=N2)cc1 (centres undefined)
inhibition of growth at 10 µM (U-251): < 10%
inhibition of growth at 10 µM (MDA-MB-231): < 10%
inhibition of growth at 10 µM (HCC 2998): < 10%
inhibition of growth at 10 µM (NCI-H322M): < 10%
inhibition of growth at 10 µM (786-0): < 10%
inhibition of growth at 10 µM (A549): < 10%
inhibition of growth at 10 µM (BT-549): < 10%
inhibition of growth at 10 µM (NCI-H23): < 10%
inhibition of growth at 10 µM (SF-295): < 10%
inhibition of growth at 10 µM (SF-539): < 10%
inhibition of growth at 10 µM (UACC-62): < 10%
inhibition of growth at 10 µM (SF-268): < 10%
inhibition of growth at 10 µM (NCI-H226): < 10%
inhibition of growth at 10 µM (T47D): < 10%
inhibition of growth at 10 µM (PC-3): 17.2%
inhibition of growth at 10 µM (ACHN): < 10%
inhibition of growth at 10 µM (COLO 205): < 10%
inhibition of growth at 10 µM (OVCAR-5): < 10%
inhibition of growth at 10 µM (SK-MEL-2): < 10%
inhibition of growth at 10 µM (MDA-MB-468): < 10%
inhibition of growth at 10 µM (RPMI-8226): < 10%
IC50 (DNA): 47.75 µg/mL (≈ 127 µM)
inhibition of growth at 10 µM (MCF7): < 10%
inhibition of growth at 10 µM (LOX IMVI): < 10%
inhibition of growth at 10 µM (HCT-116): < 10%
inhibition of growth at 10 µM (SW-620): < 10%
inhibition of growth at 10 µM (OVCAR-8): < 10%
inhibition of growth at 10 µM (NCI-H522): < 10%
inhibition of growth at 10 µM (MOLT-4): < 10%
inhibition of growth at 10 µM (SN12C): < 10%
inhibition of growth at 10 µM (OVCAR-4): < 10%
inhibition of growth at 10 µM (SK-OV-3): < 10%
inhibition of growth at 10 µM (HT-29): < 10%
inhibition of growth at 10 µM (HOP-92): 10.1%
inhibition of growth at 10 µM (SR): < 10%
inhibition of growth at 10 µM (RXF 393): < 10%
inhibition of growth at 10 µM (SNB-19): < 10%
inhibition of growth at 10 µM (A498): < 10%
inhibition of growth at 10 µM (NCI/ADR-RES): < 10%
inhibition of growth at 10 µM (TK-10): < 10%
inhibition of growth at 10 µM (SNB-75): < 10%
inhibition of growth at 10 µM (DU-145): < 10%
inhibition of growth at 10 µM (M14): < 10%
inhibition of growth at 10 µM (CAKI-1): < 10%
inhibition of growth at 10 µM (SK-MEL-5): < 10%
inhibition of growth at 10 µM (K562): < 10%
inhibition of growth at 10 µM (HCT-15): < 10%
inhibition of growth at 10 µM (HOP-62): < 10%
inhibition of growth at 10 µM (CCRF-CEM): < 10%
inhibition of growth at 10 µM (UACC-257): 11.9%
inhibition of growth at 10 µM (SK-MEL-28): < 10%
inhibition of growth at 10 µM (HL-60(TB)): < 10%
inhibition of growth at 10 µM (Malme-3M): < 10%
inhibition of growth at 10 µM (KM12): < 10%
inhibition of growth at 10 µM (NCI-H460): < 10%
inhibition of growth at 10 µM (Hs-578T): < 10%
inhibition of growth at 10 µM (IGROV-1): < 10%
inhibition of growth at 10 µM (UO-31): < 10%
inhibition of growth at 10 µM (MDA-MB-435): < 10%
